The values below come from US20230416196A1, “DIMER OF BIGUANIDINES AND THEIR THERAPEUTIC USES” (INSTITUT CURIE, priority 2020, published 2023).

One assay relates to αKG in activated MDM. Description: α-Ketoglutarate (αKG) fluorometric quantification in activated MDM. The assay is classed as cell-based, human. As to conditions: Met 10 mM, LCC-12 10 μM; FIG. 3B. The method, then: Cell culture. Peripheral blood samples were collected from distinct healthy donors (Etablissement Français du Sang). Pan monocytes were isolated by negative magnetic sorting using microbeads according to the manufacturer's instructions (Miltenyi Biotec, 130-096-537), and cultured in RPMI 1640 supplemented with glutamine (Thermo Fisher Scientific, 61870010), 10% fetal bovine serum and exposed to granulocyte-macrophage colony-stimulating factor (GM-CSF, Miltenyi Biotec, 130-093-866, 100 ng/mL) to induce differentiation into macrophages (MDM). […]
α-Ketoglutarate (αKG) measurements. αKG was quantified using a fluorometric assay (Abcam, ab83431) according to the manufacturer's protocol. […] Cells were subsequently washed with ice-cold 1×PBS and counted. […] Samples were centrifuged at 13000× g for 15 min and the supernatants collected. αKG levels were measured using a standard curve and a control to subtract pyruvate background levels. Fluorescence intensities (ex. 535 nm; em. 590 nm) were recorded using a Perkin Elmer Wallac 1420 Victor2 Microplate Reader, and data were normalized against cell number. […]

Assay [1] relates to inflammatory macrophages (act. MDM). As to the kind of experiment: Flow cytometry of CD80 and CD86 cell surface markers in activated MDM (Example 2). In kind it is cell-based, human. The conditions noted are these: LCC-12 10 μM; FIG. 4F. The method, then: Cell culture. Peripheral blood samples were collected from distinct healthy donors (Etablissement Français du Sang). Pan monocytes were isolated by negative magnetic sorting using microbeads according to the manufacturer's instructions (Miltenyi Biotec, 130-096-537), and cultured in RPMI 1640 supplemented with glutamine (Thermo Fisher Scientific, 61870010), 10% fetal bovine serum and exposed to granulocyte-macrophage colony-stimulating factor (GM-CSF, Miltenyi Biotec, 130-093-866, 100 ng/mL) to induce differentiation into macrophages (MDM). At day 5 of differentiation, MDM were treated with lipopolysaccharides (LPS, InvivoGen, tlrl-3pelps, 100 ng/mL, 24 h) and interferon-γ (IFNγ, Miltenyi Biotec, 130-096-484, 20 ng/mL, 24 h) to generate activated MDM (act. MDM) and were co-treated with metformin (Met, 1,1-dimethylbiguanid hydrochloride, Alfa Aesar, J63361, 10 mM, 24 h) or LCC-12 (in-house, 10 μM, 24 h) as indicated.
Flow cytometry. […] Macrophages were analyzed with an antibody panel consisting of antibodies against the following cell surface proteins: CD44, CD80, CD86 and TfR1. The data were analyzed with FlowJo software v. […] Flow cytometry analysis of lysosomal iron content: Lysosomal iron was monitored by incubating cells at 37° C. with 5% CO2 in medium containing RhoNox-M (in-house, 1 μM, 1 h), before flow analysis of fluorescence intensity.
In general terms: A flow cytometer gives signals particle by particle.

The test system of the next assay is neutrophils. Description: Activation of neutrophils (CD64, CD66b flow cytometry). The assay is classed as cell-based, human. The conditions noted are these: LCC-12 10 μM, 1 h, LPS; FIG. 6C. The procedure:
Neutrophils. Peripheral blood samples were collected from healthy donors (Etablissement Français du Sang). Then, red cells in whole blood samples were lysed (ebioscience 10×RBC lysis buffer, 00-4300-54). The remaining cells were cultured in RPMI 1640 supplemented with glutamine, and 2% human serum, and activated 1 h with LPS (2 μg/mL) in presence of LCC-12 (10 μM). The granulocytes/neutrophils population was determined by flow cytometry using FSC, SSC and CD15 surface marker. The activation status of the granulocytes was assessed by measuring CD64 and CD66b surface markers by flow cytometry.

Assay [2] deals with MCF7, FC1242 and DU-145 cells. Description: Cell viability in epithelial versus mesenchymal state (TGF-β or OSM induced EMT). The assay is classed as cell-based, human, mouse. The conditions noted are these: EMT induced with TGF-β or OSM; FIG. 7. The method, then:
Cell viability assay (IC50). Cell viability assay was carried out by plating 1000 cells/well in 96-well plates. Cells were treated for 72 h in a range between to 25 nM and […] using serial dilutions. The inventors followed the manufacturer's protocol. In brief, CellTiter-Blue® reagent (G8081, Promega) was added after 72 h treatment and cells were incubated for 3 h before recording fluorescence intensities (λex. 560/20 nm; λem. 590/10 nm) using a Perkin Elmer Wallac 1420 Victor2 Microplate Reader.
Cell culture. MCF7 (ATCC) cells, DU-145 (ATCC) cells and FC1245 cells were cultured in Dulbecco's Modified Eagle Medium GlutaMAX (DMEM, ThermoFisher Scientific, 61965059) supplemented with 10% Fetal Bovine Serum (FBS, Gibco, 10270-106) and Penicillin-Streptomycin mixture (BioWhittaker/Lonza, DE17-602E) unless stated otherwise. Primary lung circulating tumor cells (Celprogen, 36107-34CTC, Lot 219411) were grown using stem cell complete media (Celprogen, M36102-29PS) until the third passage. Circulating cancer cells were grown in stem cell ECM T75-flasks (Celprogen, E36102-29-T75) and ECM 6-well plates (Celprogen, E36102-29-6Well). […]

For the molecule `N=C(N)NC(=N)NCCCCCCCCCCCCNC(=N)NC(=N)N` [LCC-12, lipophilic copper clamp C12], in the assay on αKG in activated MDM, the “increase of αKG in activated MDM” value is reported as “more potent than Met at a dose 1000-fold lower”. Further, in assay [1], the “production of inflammatory macrophages according to CD80 and CD86 cell surface markers” value is “interfered with the production of inflammatory macrophages”. For the same molecule, the “activation of neutrophils in vitro” value in the assay on neutrophils is listed as “does not impact the activation”. Moreover, the “IC50-values in mesenchymal state compared to epithelial counterpart” value in assay [2] is “lower IC50-values in cells in the mesenchymal state compared to the epithelial counterpart”.
